Laboratory results from US7285282B2, “Mucin peptide with immunoenhancing properties” (University of Miami, priority 2001, dated 2007).
Where no end group is shown, it is not given here.

What was measured:
[1] = test system: DA-3/sec tumor targets; assay: Splenocyte cytotoxicity against DA-3/sec targets after in vitro MUC1/sec peptide; assay type: cell-based; conditions: peptide added in vitro for 5 days to splenocytes of normal and D1-DMBA-3 tumor bearing mice, FIG. 17
[2] = test system: YAC-1; assay: NK cell assay, splenocytes pretreated with IEP, YAC-1 targets; assay type: cell-based, BALB/c mice; conditions: 10 μg IEP, 30-45 minutes pretreatment, 4-hour assay, FIG. 18
From the text: As mentioned above, there is a unique 11 amino acid peptide present on the C-terminus of the MUC1/sec protein, but not on the MUC1/TM protein. […] We investigated the possible effects of the peptide on the cytotoxicity reaction. We tested it on yet another tumor model, i.e. the D1-DMBA-3 mammary tumor bearing mice. The DA-3 cell line was originally derived from this tumor, which is routinely passaged in vivo in our laboratory in the syngeneic BALB/c mice. […] The ability of this peptide to stimulate immune cells in a NK cell assay was tested. […] Therefore, to test for immunomodulatory activity of the immunoenhancing peptide (IEP), BALB/c splenocytes were pretreated for 30-45 minutes with 10 μg IEP and subsequently, chromium-labeled YAC-1 or EL-4 targets were added in a 4-hour assay as previously described (11).

[3] = Toxicity in animals injected with the peptide; conditions: in vivo
[4] = test system: DA-3/sec targets; assay: Effect of perforin inhibitor or anti-Fas antibody on killing by DA-3/sec primed splenocytes; assay type: cell-based, mice; conditions: FIG. 14, FIG. 15

Compound	Cytotoxicity against DA-3/sec tumor targets [1]	Cytotoxicity of normal splenocytes against YAC-1 [2]	Toxicity in injected animals [3]	Effect on killing of DA-3/sec targets by primed splenocytes [4]
VSIGLSFPMLP [IEP]	significant levels of cytotoxicity	elevation of cytotoxic levels	No toxicity has been detected	–
C/C=C/[C@H]1O[C@@](O)([C@@H](C)[C@H](O)[C@H](C)[C@H]2OC(=O)/C(OC)=C/C(C)=C/[C@@H](C)[C@@H](O)[C@@H](CC)[C@@H](O)[C@H](C)C/C(C)=C/C=C/[C@@H]2OC)C[C@@H](O[C@H]2C[C@@H](O)[C@H](OC(N)=O)[C@@H](C)O2)[C@@H]1C [Concanamycin A]	–	–	–	effectively blocked killing of DA-3/sec targets in a dose-dependent manner
